Key:
[1] = target: T1, XIAP (Homo sapiens, UniProt P98170); assay: Pull down of XIAP from cell lysates by compound-carrying beads (Western); type: binding
T1 construct: pull down one member of the IAP family, XIAP from cell lysates prepared from various tissues; endogenous in cells; host or cells: Hek293 cells, Hela cells, colon tissue (lysates)
Experimental: Beads displaying compound 2CX2.201 or 2CX4.401 respectively are compared with regard to their ability to bind and pull down one member of the IAP family, XIAP from cell lysates prepared from various tissues.
• Positive control resin beads carrying a tetra-peptide (H-Ala-Val-Pro-Phe-Bead) mimicking the N-terminal part of Smac that binds to BIR3 domain of XIAP was prepared. The method of preparation was analogous to the general procedure described in example 2 with the change that only the four specific peptides were included in each of the four couplings and that the split and mix step was omitted. • Resin beads carrying 2CX2.201 was prepared as described above. • Resin beads carrying 2CX4.401 was prepared as described above. Lysate Preparation: • Hek293 and Hela: Cells are scraped off the plate in Phosphate Buffered Saline (PBS) at 4° C. • Colon tissue: Is blended into a homogeneous suspension in PBS at 4° C. • All cell suspensions are centrifuged for 10 min at 3000 rpm and supernatant is discarded. • Pellet is re-suspended in lysis buffer (50 mM Tris-HCL, 1 mM EGTA, 1 mM EDTA, 1% Triton-X W/W, 1 mM Sodium orthovanadate, 50 mM Sodium fluoride, 5 mM Sodium pyrophosphate, 1 mM MDTT, “Complete” (protease inh.) One tablet for 50 ml) • Incubate for 20 min at 4° C. • Centrifuge at 32.000 G for 30 min, 4° C. • Move supernatant to new vial (discard pellet) • Measure protein concentration Pull Down: • Bead/lysate ratio: 20 ul beads/10 mg lysate (equivalent to one pull down) • Beads are washed in 1 ml lysis buffer×2 • Lysate+beads are mixed and incubated for 1 hrs at 4° C., shaking • Beads are washed ×4 in 1 ml Lysis buffer w. […]

[2] = Stability in serum from mice; type: in vitro ADME
[3] = test system: human colorectal adenocarcinoma cell line HT-29; assay: Xenograft study, HT-29 tumours in nude mice; type: in vivo, nude BALB/c mice
Description: Female athymic nude BALB/c mice (BALB/cABom-Foxn1^nu, CA.Cg-Foxn1^nu) are obtained from Taconic Ltd, Ry, Denmark and maintained in the animal facility. Animals are approximately 6 weeks old with an initial body weight of 17-18 g when used for the experiments. The mice are housed in microisolators (filter top cages, Tecniplast, Buguggiata, Italy) under pathogen-free conditions with a 12-h light/12-h dark schedule and fed autoclaved standard chow (Altromin #1324, Lage, Germany) and water ad libitum throughout the experiment. All animals are handled under sterile conditions and maintained in a separate facility. The Danish Experimental Animal Inspectorate has approved the experimental protocol and all animal experiments are performed according to the ethical standards required by the UKCCCCR Guidelines {UKCCCR 1998}. During the study blood samples is taken one time per week. The number of animals per group (control-treatment) should be 8 animals at a minimum. Thirty-fifty percent more animals are inoculated with cells than needed in the study in order to be able to exclude animals in which there is no tumour take—i.e. the tumour fails to establish and grow progressively.
The human colorectal adenocarcinoma cell line HT-29 (HTB-38) has been obtained from the American Type Culture Collection (ATCC) Manassas, Va., USA. Tumour cells growing exponentially are harvested by brief incubation with 0.05% Trypsin-EDTA solution suspended in new medium for injection.
Tumour xenografts are initiated by subcutaneous (s.c.) injection of 10^7 cells into the left flank of nude mice. […]
Tumour volume, food consumption, body weight is measured twice a week. […] Evaluation of tumour growth: The tumours are measured every 3-4 day with a calliper. Baseline tumour weight are calculated by using the following formula mg=(L×W^2)/2 where L=length, W=width and these are perpendicular to each other {Teicher BA 1997}. […]
All data are expressed as the mean±SEM, and statistical analyses of the tumour data are performed using t-test. […]

[4] = test system: primary colon cancer cells from patients and colon cancer lines (i.e. HT29); assay: Cell penetration, IAP inhibition and apoptosis in colon cancer cells; type: cell-based, human

T1 sequence (P98170 whole entry): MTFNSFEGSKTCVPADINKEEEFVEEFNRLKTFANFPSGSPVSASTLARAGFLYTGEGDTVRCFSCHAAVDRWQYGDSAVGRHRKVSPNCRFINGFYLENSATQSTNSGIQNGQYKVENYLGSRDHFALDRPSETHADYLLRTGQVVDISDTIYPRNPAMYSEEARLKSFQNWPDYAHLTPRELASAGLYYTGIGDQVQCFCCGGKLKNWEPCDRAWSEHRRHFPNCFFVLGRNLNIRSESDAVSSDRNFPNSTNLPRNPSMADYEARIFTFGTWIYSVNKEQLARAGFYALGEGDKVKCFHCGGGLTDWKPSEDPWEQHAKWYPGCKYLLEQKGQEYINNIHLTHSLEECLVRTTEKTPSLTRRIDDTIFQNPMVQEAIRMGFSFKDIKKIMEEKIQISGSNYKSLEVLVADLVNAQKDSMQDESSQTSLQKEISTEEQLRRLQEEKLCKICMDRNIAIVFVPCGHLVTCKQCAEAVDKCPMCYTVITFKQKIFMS

pull down of XIAP (FIG. 5b) ([1]; prolonged exposure time to increase sensitivity): weaker effect
stability in serum [2]: high degree of stability
SMILES: CN[C@@H](C)C(=O)N[C@H](C(=O)N1C[C@@H](NCC2CCCCC2)C[C@H]1C(=O)N[C@@H](Cc1ccccc1)C(N)=O)C(C)C [2CX4.401]
affinity for XIAP, comparison of the two compounds ([1]; conclusion from pull down experiments): significant higher affinity than that of 2CX2.201
pull down of XIAP (FIG. 5a) ([1]; lysates of Hek293, Hela, colon tissue, compound on beads): approximately the same degree as the endogenous AVPF peptide
effect on Paclitaxel efficacy (tumour weight) ([3]; combination with paclitaxel, 29 days after inoculation, FIG. 4): significantly potentiated the effect of Paclitaxel
tumour weight relative to that observed with Paclitaxel alone ([3]; combined treatment: 2CX4.401 0.0625 mg/h osmotic pump + paclitaxel 25 mg/kg s.c. once a week, 29 days after inoculation): approx. 15%
tumour growth in mono-therapy ([3]; mono-therapy, osmotic pump 0.0625 mg/h, 29 days): does not affect tumour growth
apoptosis [4]: promote apoptosis
inhibition of IAPs [4]: inhibits IAPs

Source: patent US8318717B2, “Compounds modifying apoptosis” (2cureX, priority 2005, dated 2012)
